Measurements reported in ChEMBL document CHEMBL1136132, “Effect of structural modification on the inhibitory selectivity of rutaecarpine derivatives on human CYP1A1, CYP1A2, and CYP1B1” (Bioorg Med Chem Lett, 2003).

Key:
[1] = Ratio for inhibition of Cytochrome P450 1B1 to that of Cytochrome P450 1A2; type: ADME
[2] = molecular target: T1, Cytochrome P450 1A2 (Homo sapiens, UniProt P05177); test: Inhibition of Cytochrome P450 1A2 enzyme in bacterial membrane expressing human P450s; type: ADME, cell membranes
T1 sequence (P05177 whole entry): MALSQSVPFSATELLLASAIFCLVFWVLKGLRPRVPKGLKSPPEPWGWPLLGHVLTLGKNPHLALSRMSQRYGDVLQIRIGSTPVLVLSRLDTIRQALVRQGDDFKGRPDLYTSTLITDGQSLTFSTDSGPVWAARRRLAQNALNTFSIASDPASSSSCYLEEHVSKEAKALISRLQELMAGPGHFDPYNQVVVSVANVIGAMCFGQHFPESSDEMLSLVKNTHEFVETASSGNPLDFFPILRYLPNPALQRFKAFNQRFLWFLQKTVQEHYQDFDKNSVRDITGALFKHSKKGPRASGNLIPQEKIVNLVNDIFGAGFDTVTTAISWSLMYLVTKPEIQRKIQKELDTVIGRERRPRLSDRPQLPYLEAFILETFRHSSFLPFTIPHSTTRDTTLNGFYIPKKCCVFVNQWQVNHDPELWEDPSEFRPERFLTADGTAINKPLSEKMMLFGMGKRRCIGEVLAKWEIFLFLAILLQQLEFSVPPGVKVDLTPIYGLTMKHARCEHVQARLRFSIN

[3] = molecular target: T2, Cytochrome P450 1B1 (Homo sapiens, UniProt Q16678); test: Inhibition of Cytochrome P450 1B1 enzyme in bacterial membrane expressing human P450s; type: ADME, cell membranes
T2 sequence (Q16678 whole entry): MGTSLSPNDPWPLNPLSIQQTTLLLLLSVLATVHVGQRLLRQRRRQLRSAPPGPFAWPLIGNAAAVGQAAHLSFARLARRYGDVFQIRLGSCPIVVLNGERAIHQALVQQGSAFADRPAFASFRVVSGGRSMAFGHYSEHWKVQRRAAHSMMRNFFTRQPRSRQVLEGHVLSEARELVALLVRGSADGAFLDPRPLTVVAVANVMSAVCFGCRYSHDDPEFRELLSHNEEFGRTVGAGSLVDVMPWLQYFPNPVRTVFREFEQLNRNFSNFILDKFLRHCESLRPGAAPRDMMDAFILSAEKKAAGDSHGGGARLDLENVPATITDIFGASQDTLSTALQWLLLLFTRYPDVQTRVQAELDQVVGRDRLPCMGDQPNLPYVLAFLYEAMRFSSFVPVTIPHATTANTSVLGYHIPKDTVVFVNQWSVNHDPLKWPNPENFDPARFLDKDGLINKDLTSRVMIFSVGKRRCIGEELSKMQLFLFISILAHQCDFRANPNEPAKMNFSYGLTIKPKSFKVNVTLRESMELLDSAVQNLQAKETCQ

[4] = molecular target: T3, Cytochrome P450 1A1 (Homo sapiens, UniProt P04798); test: Inhibition of Cytochrome P450 1A1 enzyme in bacterial membrane expressing human P450s; type: ADME, cell membranes
T3 sequence (P04798 whole entry): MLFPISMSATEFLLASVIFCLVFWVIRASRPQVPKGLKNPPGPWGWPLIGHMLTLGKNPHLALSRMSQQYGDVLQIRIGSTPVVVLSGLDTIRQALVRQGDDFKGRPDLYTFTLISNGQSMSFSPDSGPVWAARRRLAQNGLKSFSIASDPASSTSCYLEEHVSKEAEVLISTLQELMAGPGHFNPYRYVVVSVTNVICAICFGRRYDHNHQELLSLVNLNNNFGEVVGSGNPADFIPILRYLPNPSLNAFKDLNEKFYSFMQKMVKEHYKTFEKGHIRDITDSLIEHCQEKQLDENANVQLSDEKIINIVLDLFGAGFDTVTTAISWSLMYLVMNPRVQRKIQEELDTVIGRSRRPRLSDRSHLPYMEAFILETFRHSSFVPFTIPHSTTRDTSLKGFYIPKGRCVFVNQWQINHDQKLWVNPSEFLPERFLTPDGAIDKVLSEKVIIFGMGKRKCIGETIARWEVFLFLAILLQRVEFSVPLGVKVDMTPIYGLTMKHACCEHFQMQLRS

[5] = Ratio for inhibition of Cytochrome P450 1A1 to that of Cytochrome P450 1A2; type: ADME
[6] = molecular target: T2, Cytochrome P450 1B1; test: Inhibition of human Cytochrome P450 1B1 expressed in bacterial membrane; type: ADME, cell membranes

IC50 [2] [nM] | IC50 [3] [nM] | IC50 [4] [nM] | IC50 [6] [nM] | Compound | ratio [1] | ratio [5]
280 | 140 | 1280 |  | COc1ccc2nc3n(c(=O)c2c1)CCc1c-3[nH]c2ccccc12 | 0.5 | 5
11 | 71 | 450 |  | COc1cccc2c(=O)n3c(nc12)-c1[nH]c2ccccc2c1CC3 | 7 | 45
76 | 170 | 850 |  | COc1ccc2c(=O)n3c(nc2c1)-c1[nH]c2ccccc2c1CC3 | 2 | 11
1500 | 120 | 2470 |  | O=c1c2cc(Br)ccc2nc2n1CCc1c-2[nH]c2ccccc12 | 0.8 | 16
1730 | 140 | 870 |  | COc1ccc2nc3n(c(=O)c2c1OC)CCc1c-3[nH]c2ccccc12 | 0.08 | 0.5
 |  |  |  | CN1c2ccccc2C(=O)N2CCc3c([nH]c4ccccc34)[C@@H]21 [EVODIAMINE] | 0.04 | 2
29 | 90 | 1920 |  | O=c1c2cc(Cl)ccc2nc2n1CCc1c-2[nH]c2ccccc12 | 3 | 64
39 | 37 | 1200 |  | O=c1c2ccc(Cl)cc2nc2n1CCc1c-2[nH]c2ccccc12 | 1 | 30
30 |  |  |  | Oc1c2ccccc2nc2c3nc4ccccc4c-3ccn12 |  | 
29 | 2400 | 970 |  | COc1ccc2c(=O)n3c(nc2c1OC)-c1[nH]c2ccccc2c1CC3 | 8 | 33
22 | 55 | 260 |  | O=c1c2ccccc2nc2n1CCc1c-2[nH]c2ccccc12 [RUTAECARPINE] | 3 | 13
16300 | 690 | 24600 |  | CN1c2ccccc2C(=O)N2CCc3c([nH]c4ccccc34)[C@H]21 [EVODIAMINE] |  | 
41 | 80 | 420 |  | COc1cc(OC)c2nc3n(c(=O)c2c1)CCc1c-3[nH]c2ccccc12 | 2 | 11
1980 | 110 | 2000 |  | COc1ccc2c3c([nH]c2c1)-c1nc2ccccc2c(=O)n1CC3 | 0.06 | 1
> 500000 | 160 | 1580 |  | COc1cc2nc3n(c(=O)c2cc1OC)CCc1c-3[nH]c2ccccc12 | < 0.0003 | < 0.003
2920 |  | 1780 | 84 | COc1ccc2[nH]c3c(c2c1)CCn1c-3nc2ccccc2c1=O | 0.03 | 0.6
5630 | 330 | 18000 |  | C[n+]1c2n(c(=O)c3ccccc31)CCc1c-2[nH]c2ccccc12 [DEHYDROEVODIAMINE] | 0.06 | 3
